Experiments:
Format in all cases: in vivo
[1] = system: redroot pigweed (Amaranthus retroflexus); assay: Test G Post-Emergence Protocol; conditions: Amaranthus retroflexus, post-emergence, 312 h
How it was run: (§1)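 Values are percent visual injury at 13 days after treatment (0 none, 100 total). Treatment was a post-emergence spray at 15.625, 62.5 or 250 g/ha on 8-day-old pot plants kept at 24/16 °C.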

[2] = system: corn (Zea mays); assay: Test G Post-Emergence Protocol; conditions: Zea mays, post-emergence, 312 h
How it was run: as §1

[3] = system: giant foxtail (Setaria faberi); assay: Test G Post-Emergence Protocol; conditions: Setaria faberi, post-emergence, 312 h
How it was run: as §1

[4] = system: ivy-leaved morning glory (Ipomoea hederacea); assay: Test G Post-Emergence Protocol; conditions: Ipomoea, post-emergence, 312 h
How it was run: as §1

[5] = system: velvetleaf (Abutilon theophrasti); assay: Test G Post-Emergence Protocol; conditions: Abutilon theophrasti, post-emergence, 312 h
How it was run: as §1

[6] = system: barnyardgrass (Echinochloa crus-galli); assay: Test G Post-Emergence Protocol; conditions: Echinochloa crus-galli, post-emergence, 312 h
How it was run: as §1

[7] = system: redroot pigweed (Amaranthus retroflexus); assay: Test G Pre-Emergence Protocol; conditions: Amaranthus retroflexus, pre-emergence, 312 h, evaluated after 13 days
How it was run: (§2)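 Herbicidal effect was rated 13 days post-application on a scale where 100 equals total damage. Spraying took place the day after sowing, using 15.625, 62.5 or 250 g/ha of compound in a 50:50 acetone/water solution with 0.5% Tween 20.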

[8] = system: corn (Zea mays); assay: Test G Pre-Emergence Protocol; conditions: Zea mays, pre-emergence, 312 h, evaluated after 13 days
How it was run: as §2

[9] = system: giant foxtail (Setaria faberi); assay: Test G Pre-Emergence Protocol; conditions: Setaria faberi, pre-emergence, 312 h, evaluated after 13 days
How it was run: as §2

[10] = system: ivy-leaved morning glory (Ipomoea hederacea); assay: Test G Pre-Emergence Protocol; conditions: Ipomoea, pre-emergence, 312 h, evaluated after 13 days
How it was run: as §2

[11] = system: velvetleaf (Abutilon theophrasti); assay: Test G Pre-Emergence Protocol; conditions: Abutilon theophrasti, pre-emergence, 312 h, evaluated after 13 days
How it was run: as §2

[12] = system: barnyardgrass (Echinochloa crus-galli); assay: Test G Pre-Emergence Protocol; conditions: Echinochloa crus-galli, pre-emergence, 312 h, evaluated after 13 days
How it was run: as §2

## Cc1c(Br)cccc1NC(=O)[C@@H]1C(=O)N(C)C[C@H]1c1ccc(C(F)(F)F)cc1 (racemic) [Compound 1619]
[1]; 15.625 g ai/ha, evaluated after 13 days (100=total damage to plant; 0=no damage to plant), read-out: Pigweed, Redroot damage rating
  pest or weed control at 15.625 g/ha: 0%
[1]; 62.5 g ai/ha, evaluated after 13 days, read-out: Pigweed, Redroot damage rating (100=total damage to plant; 0=no damage to plant)
  pest or weed control at 62.5 g/ha: 20%
[1]; 250 g ai/ha, evaluated after 13 days, read-out: damage to plant, Pigweed, Redroot (100=total damage to plant; 0=no damage to plant)
  pest or weed control at 250 g/ha: 50%
[2]; 15.625 g ai/ha, evaluated after 13 days (100=total damage to plant; 0=no damage to plant), read-out: Corn damage rating
  plant injury at 15.625 g/ha: 0%
[2]; 62.5 g ai/ha, evaluated after 13 days, read-out: Corn damage rating (100=total damage to plant; 0=no damage to plant)
  plant injury at 62.5 g/ha: 0%
[2]; 250 g ai/ha, evaluated after 13 days, read-out: damage to plant, Corn (100=total damage to plant; 0=no damage to plant)
  plant injury at 250 g/ha: 10%
[3]; 15.625 g ai/ha, evaluated after 13 days (100=total damage to plant; 0=no damage to plant), read-out: Foxtail, Giant damage rating
  pest or weed control at 15.625 g/ha: 0%
[3]; 62.5 g ai/ha, evaluated after 13 days, read-out: Foxtail, Giant damage rating (100=total damage to plant; 0=no damage to plant)
  pest or weed control at 62.5 g/ha: 60%
[3]; 250 g ai/ha, evaluated after 13 days, read-out: damage to plant, Foxtail, Giant (100=total damage to plant; 0=no damage to plant)
  pest or weed control at 250 g/ha: 70%
[4]; 15.625 g ai/ha, evaluated after 13 days (100=total damage to plant; 0=no damage to plant), read-out: Morningglory, Ivy-leaved damage rating
  pest or weed control at 15.625 g/ha: 0%
[4]; 62.5 g ai/ha, evaluated after 13 days, read-out: Morningglory, Ivy-leaved damage rating (100=total damage to plant; 0=no damage to plant)
  pest or weed control at 62.5 g/ha: 10%
[4]; 250 g ai/ha, evaluated after 13 days, read-out: damage to plant, Morningglory, Ivy-leaved (100=total damage to plant; 0=no damage to plant)
  pest or weed control at 250 g/ha: 30%
[5]; 15.625 g ai/ha, evaluated after 13 days (100=total damage to plant; 0=no damage to plant), read-out: Velvetleaf damage rating
  pest or weed control at 15.625 g/ha: 0%
[5]; 62.5 g ai/ha, evaluated after 13 days, read-out: Velvetleaf damage rating (100=total damage to plant; 0=no damage to plant)
  pest or weed control at 62.5 g/ha: 0%
[5]; 250 g ai/ha, evaluated after 13 days, read-out: damage to plant, Velvetleaf (100=total damage to plant; 0=no damage to plant)
  pest or weed control at 250 g/ha: 0%
[6]; 15.625 g ai/ha, evaluated after 13 days (100=total damage to plant; 0=no damage to plant), read-out: Barnyardgrass damage rating
  pest or weed control at 15.625 g/ha: 0%
[6]; 62.5 g ai/ha, evaluated after 13 days, read-out: Barnyardgrass damage rating (100=total damage to plant; 0=no damage to plant)
  pest or weed control at 62.5 g/ha: 10%
[6]; 250 g ai/ha, evaluated after 13 days, read-out: damage to plant, Barnyardgrass (100=total damage to plant; 0=no damage to plant)
  pest or weed control at 250 g/ha: 70%
[7]; 15.625 g ai/ha, read-out: Pigweed, Redroot damage rating (100=total damage to plant; 0=no damage to plant)
  pest or weed control at 15.625 g/ha: 0%
[7]; 62.5 g ai/ha, 100=total damage to plant, 0=no damage to plant, read-out: plant damage rating, Pigweed, Redroot
  pest or weed control at 62.5 g/ha: 0%
[7]; 250 g ai/ha, read-out: Pigweed, Redroot damage rating (100=total damage to plant; 0=no damage to plant)
  pest or weed control at 250 g/ha: 20%
[8]; 15.625 g ai/ha, read-out: Corn damage rating (100=total damage to plant; 0=no damage to plant)
  plant injury at 15.625 g/ha: 0%
[8]; 62.5 g ai/ha, 100=total damage to plant, 0=no damage to plant, read-out: plant damage rating, Corn
  plant injury at 62.5 g/ha: 0%
[8]; 250 g ai/ha, read-out: Corn damage rating (100=total damage to plant; 0=no damage to plant)
  plant injury at 250 g/ha: 0%
[9]; 15.625 g ai/ha, read-out: Foxtail, Giant damage rating (100=total damage to plant; 0=no damage to plant)
  pest or weed control at 15.625 g/ha: 0%
[9]; 62.5 g ai/ha, 100=total damage to plant, 0=no damage to plant, read-out: plant damage rating, Foxtail, Giant
  pest or weed control at 62.5 g/ha: 0%
[9]; 250 g ai/ha, read-out: Foxtail, Giant damage rating (100=total damage to plant; 0=no damage to plant)
  pest or weed control at 250 g/ha: 70%
[10]; 15.625 g ai/ha, read-out: Morning-glory, Ivy-leaved damage rating (100=total damage to plant; 0=no damage to plant)
  pest or weed control at 15.625 g/ha: 0%
[10]; 62.5 g ai/ha, 100=total damage to plant, 0=no damage to plant, read-out: plant damage rating, Morningglory, Ivy-leaved
  pest or weed control at 62.5 g/ha: 0%
[10]; 250 g ai/ha, read-out: Morningglory, Ivy-leaved damage rating (100=total damage to plant; 0=no damage to plant)
  pest or weed control at 250 g/ha: 10%
[11]; 15.625 g ai/ha, read-out: Velvetleaf damage rating (100=total damage to plant; 0=no damage to plant)
  pest or weed control at 15.625 g/ha: 0%
[11]; 62.5 g ai/ha, 100=total damage to plant, 0=no damage to plant, read-out: plant damage rating, Velvetleaf
  pest or weed control at 62.5 g/ha: 0%
[11]; 250 g ai/ha, read-out: Velvetleaf damage rating (100=total damage to plant; 0=no damage to plant)
  pest or weed control at 250 g/ha: 10%
[12]; 15.625 g ai/ha, read-out: Barnyard grass damage rating (100=total damage to plant; 0=no damage to plant)
  pest or weed control at 15.625 g/ha: 0%
[12]; 62.5 g ai/ha, 100=total damage to plant, 0=no damage to plant, read-out: plant damage rating, Barnyardgrass
  pest or weed control at 62.5 g/ha: 0%
[12]; 250 g ai/ha, read-out: Barnyardgrass damage rating (100=total damage to plant; 0=no damage to plant)
  pest or weed control at 250 g/ha: 10%
